The record followed here is patent US12138254B2, “Chronic nightly dosing of lasmiditan for migraine prevention” (Eli Lilly and Company, priority 2018, dated 2024).

The subject of the test is dural plasma protein extravasation. The test can be described thus: Trigeminal stimulation-induced dural plasma protein extravasation (PPE) in rats. In kind it is in vivo, Sprague-Dawley rats. The text has this: Migraine is a painful condition thought to involve neurogenic inflammation of the dural membrane and activation of the trigeminal nervous system. The 5-HT1F receptor is widely expressed in the CNS and peripheral nerves, including the trigeminal ganglia, dorsal root ganglia and trigeminal nucleus caudalis. Plasma protein extravasation (PPE), one component of neurogenic inflammation, can be induced in the dura of rats by electrically stimulating the trigeminal ganglion. Considering the role of the trigeminal nerve in the physiology of migraine, this study is useful to characterize the ability of lasmiditan-hemisuccinate to block plasma protein extravasation in the dura of rats following electrical stimulation of the trigeminal ganglion.
To investigate the potential of lasmiditan to modify the dysfunction in the target tissue, the duration of effect following a single oral dose of lasmiditan-hemisuccinate was also determined. Electrical stimulation of the trigeminal ganglion of rats and guinea pigs can be used to induce neurogenic inflammation in the meninges (dura). Briefly, unilateral electrical stimulation of either the left or right trigeminal ganglion using electrodes implanted stereotaxically is used to induce ipsilateral neurogenic inflammation and the increased extravasation of plasma proteins.
Lasmiditan-hemisuccinate is dissolved in sterile water. All doses of lasmiditan are reported as free base equivalent doses, accounting for the weight of the salt. Envigo Sprague-Dawley, Sprague-Dawley male rats (250-350 grams, n=4/group) are fasted overnight prior to dosing. The animals are orally gavaged (2 mL/kg dose volume) with test compound or vehicle one hour prior to stimulation time and returned to their cages with only water available. Approximately 50 minutes post-dosing, the rats are anesthetized with Nembutal (65 mg/kg, ip.) and implanted with stainless steel stimulating electrodes (Rhodes Medical Systems, Inc.) to a depth of 9.2 mm. from the dura. The femoral vein is exposed and fluorescein isothiocyanate-labeled bovine serum albumin (FITC-BSA) (20 mg/kg, iv.), is injected into the femoral vein 2 minutes prior to stimulation. The FITC-BSA functions as a marker for protein extravasation. The left trigeminal ganglion is stimulated for 5 minutes at a current intensity of 1.0 mA (5 Hz, 5 msec pulse duration) with a Model S48 Grass Instrument Stimulator with PSIU6 photoelectric isolation unit (Grass-Telefactor). Five minutes following stimulation, a blood sample is collected by cardiac puncture and the rats are sacrificed by exsanguination with 40 ml of saline. One milliliter of blood is collected and placed in a 1.5 ml EDTA coated tube (Fisher Cat. #540734) on ice. Plasma is separated via centrifugation at 10,000 rpm (941 g) for thirty minutes at 4° C. The top of the skull is removed to collect the brain and dural membranes. The brain and plasma samples are frozen at −80° C. until thawed for compound quantification. The membrane samples are removed from both hemispheres, rinsed with water, and spread flat on microscope slides. The slides are dried for 15 minutes on a slide warmer, then the tissues are cover-slipped with a 70% glycerol/water solution. A fluorescence microscope (Zeiss) equipped with a grating monochromator and a spectrophotometer is used to quantify the amount of FITC-BSA dye in each dural sample. The extravasation induced by electrical stimulation of the trigeminal ganglion is an ipsilateral effect (i.e. occurs only on the side of the dura in which the trigeminal ganglion was stimulated). This allows the other (unstimulated) half of the dura to be used as the control. The ratio of extravasation in the dura from the stimulated side versus the unstimulated side is calculated and reported as the extravasation ratio for each animal. The mean extravasation ratio and standard error of the mean (SEM) are calculated for each treatment group. Controls yield a ratio of approximately 1.8. […]

In the case of “2,4,6-trifluoro-N-[6-(1-methyl-piperidine-4-carbonyl)-pyridin-2-yl]-benzamide hemi-succinate salt [Lasmiditan-hemisuccinate]”, the “inhibition of dural plasma protein extravasation vs vehicle” value runs as follows: (1 mg/kg po, 1 hour post-dose) “statistically different vs vehicle”; (10 mg/kg po, 1 hour post-dose) “statistically different vs vehicle”; (single 10 mg/kg po, 24 hours post-dose) “significantly blocks”; (single 10 mg/kg po, 48 hours post-dose) “not effective”. Further, the “inhibition of dural plasma protein extravasation” value (one hour following oral administration to rats, 0.1-10 mg/kg) is reported as “dose-dependently inhibits”.
